Patent US9931327B2, “Derivatives of 1-phenyl-2-pyridinyl alkyl alcohols as phosphodiesterase inhibitors” (Chiesi Farmaceutici S.p.A., priority 2011, dated 2018)
pIC50: −log10 of the molar value. Where a name gives a salt, the structure may show the parent alone.

What follows are compounds tested on LPS-induced TNF-α release in peripheral blood mononuclear cells (PBMCs) (assay: In vitro determination of PDE4 inhibitory activity in the PBMCs assay (LPS-induced TNF-α release)). Conditions: Homo sapiens, PBMC, 18 h, read-out: PDE4 inhibition (IC50, 50% inhibition of LPS-induced TNF-α release).
Type: cell-based, human
In short: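 Cryopreserved human PBMCs (10^5 cells/well) pre-incubated 30 min with compound (10^−12 to 10^−6 M or 10^−3 to 10^−7 M), then stimulated with LPS 3 ng/ml for 18 h at 37 °C. TNF-α in medium by ELISA; IC50 as mean ± 95% confidence limits.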

SMILES | pIC50
Nc1ccc(S(=O)(=O)N2CCS[C@@H]2C(=O)O[C@@H](Cc2c(Cl)c[n+]([O-])cc2Cl)c2ccc(OC(F)F)c(OCC3CC3)c2)cc1 [Compound 151, 4-((S)-2-((R)-3-(4-aminophenylsulfonyl)thiazolidine-2-carbonyloxy)-2-(3-(cyclopropylmethoxy)-4-(difluoromethoxy)phenyl)ethyl)-3,5-dichloropyridine 1-oxide] | 9.00 to 10.00

Same assay, conditions: PBMC; human PBMCs, LPS 3 ng/ml, 18 hours, TNF-α by ELISA; read-out: PDE4 inhibition (IC50, 50% inhibition of LPS-induced TNF-α release)

SMILES | pIC50
CN1CCN(C(=O)c2cccc(S(=O)(=O)N3CCSC3C(=O)O[C@@H](Cc3c(Cl)c[n+]([O-])cc3Cl)c3ccc(OC(F)F)c(OCC4CC4)c3)c2)CC1 (stereo partly drawn) [Compound 130, 3,5-dichloro-4-((2S)-2-(3-(cyclopropylmethoxy)-4-(difluoromethoxy)phenyl)-2-(3-(3-(4-methylpiperazine-1-carbonyl)phenylsulfonyl)thiazolidine-2-carbonyloxy)ethyl)pyridine 1-oxide] | > 10.00
COc1ccc(S(=O)(=O)N2CCS[C@H]2C(=O)O[C@@H](Cc2c(Cl)c[n+]([O-])cc2Cl)c2ccc(OC(F)F)c(OCC3CC3)c2)cc1C(=O)N(C)C [Compound 131, 3,5-dichloro-4-((S)-2-(3-(cyclopropylmethoxy)-4-(difluoromethoxy)phenyl)-2-((S)-3-(3-(dimethylcarbamoyl)-4-methoxyphenylsulfonyl)thiazolidine-2-carbonyloxy)ethyl)pyridine 1-oxide] | > 10.00
CN1CCN(C(=O)c2cccc(S(=O)(=O)N3CCS[C@H]3C(=O)O[C@@H](Cc3c(Cl)c[n+]([O-])cc3Cl)c3ccc(OC(F)F)c(OCC4CC4)c3)c2)CC1 [Compound 132, 3,5-dichloro-4-((S)-2-(3-(cyclopropylmethoxy)-4-(difluoromethoxy)phenyl)-2-((S)-3-(3-(4-methylpiperazine-1-carbonyl)phenylsulfonyl)thiazolidine-2-carbonyloxy)ethyl)pyridine 1-oxide] | > 10.00
Nc1ccc(S(=O)(=O)N2CCSC2C(=O)O[C@@H](Cc2c(Cl)c[n+]([O-])cc2Cl)c2ccc(OC(F)F)c(OCC3CC3)c2)cc1 (stereo partly drawn) [Compound 135, 4-((2S)-2-(3-(4-aminophenylsulfonyl)thiazolidine-2-carbonyloxy)-2-(3-(cyclopropylmethoxy)-4-(difluoromethoxy)phenyl)ethyl)-3,5-dichloropyridine 1-oxide] | 9.00 to 10.00
Nc1ccc(S(=O)(=O)N2CCC[C@H]2C(=O)O[C@@H](Cc2c(Cl)c[n+]([O-])cc2Cl)c2ccc(OC(F)F)c(OCC3CC3)c2)cc1 [Compound 136, 4-((S)-2-((S)-1-(4-aminophenylsulfonyl)pyrrolidine-2-carbonyloxy)-2-(3-(cyclopropylmethoxy)-4-(difluoromethoxy)phenyl)ethyl)-3,5-dichloropyridine 1-oxide] | 9.00 to 10.00
COc1ccc(S(=O)(=O)N2CCSC2C(=O)O[C@@H](Cc2c(Cl)c[n+]([O-])cc2Cl)c2ccc(OC(F)F)c(OCC3CC3)c2)cc1N (stereo partly drawn) [Compound 137, 4-((2S)-2-(3-(3-amino-4-methoxyphenylsulfonyl)thiazolidine-2-carbonyloxy)-2-(3-(cyclopropylmethoxy)-4-(difluoromethoxy)phenyl)ethyl)-3,5-dichloropyridine 1-oxide] | 9.00 to 10.00
Nc1ccc(S(=O)(=O)N2CSC[C@H]2C(=O)O[C@@H](Cc2c(Cl)c[n+]([O-])cc2Cl)c2ccc(OC(F)F)c(OCC3CC3)c2)cc1 [Compound 138, 4-((S)-2-((R)-3-(4-aminophenylsulfonyl)thiazolidine-4-carbonyloxy)-2-(3-(cyclopropylmethoxy)-4-(difluoromethoxy)phenyl)ethyl)-3,5-dichloropyridine 1-oxide] | 9.00 to 10.00
Nc1ccc(S(=O)(=O)N2CCOC(C(=O)O[C@@H](Cc3c(Cl)c[n+]([O-])cc3Cl)c3ccc(OC(F)F)c(OCC4CC4)c3)C2)cc1 (stereo partly drawn) [Compound 139, 4-((2S)-2-(4-(4-aminophenylsulfonyl)morpholine-2-carbonyloxy)-2-(3-(cyclopropylmethoxy)-4-(difluoromethoxy)phenyl)ethyl)-3,5-dichloropyridine 1-oxide] | > 10.00
Nc1cccc(S(=O)(=O)N2CCS[C@H]2C(=O)O[C@@H](Cc2c(Cl)c[n+]([O-])cc2Cl)c2ccc(OC(F)F)c(OCC3CC3)c2)c1 [Compound 140, 4-((S)-2-((S)-3-(3-aminophenylsulfonyl)thiazolidine-2-carbonyloxy)-2-(3-(cyclopropylmethoxy)-4-(difluoromethoxy)phenyl)ethyl)-3,5-dichloropyridine 1-oxide] | > 10.00
Nc1ccc(S(=O)(=O)N2CCN(CC(=O)O[C@@H](Cc3c(Cl)c[n+]([O-])cc3Cl)c3ccc(OC(F)F)c(OCC4CC4)c3)CC2)cc1 [Compound 141, (S)-4-(2-(2-(4-(4-aminophenylsulfonyl)piperazin-1-yl)acetoxy)-2-(3-(cyclopropylmethoxy)-4-(difluoromethoxy)phenyl)ethyl)-3,5-dichloropyridine 1-oxide] | 9.00 to 10.00
CS(=O)(=O)Nc1ccc(S(=O)(=O)N2CCSC2C(=O)O[C@@H](Cc2c(Cl)c[n+]([O-])cc2Cl)c2ccc(OC(F)F)c(OCC3CC3)c2)cc1 (stereo partly drawn) [Compound 142, 3,5-dichloro-4-((2S)-2-(3-(cyclopropylmethoxy)-4-(difluoromethoxy)phenyl)-2-(3-(4-(methylsulfonamido)phenylsulfonyl)thiazolidine-2-carbonyloxy)ethyl)pyridine 1-oxide] | 9.00 to 10.00
CS(=O)(=O)N(CCN1CCOCC1)c1ccc(S(=O)(=O)N2CCSC2C(=O)O[C@@H](Cc2c(Cl)c[n+]([O-])cc2Cl)c2ccc(OC(F)F)c(OCC3CC3)c2)cc1 (stereo partly drawn) [Compound 143, 3,5-dichloro-4-((2S)-2-(3-(cyclopropylmethoxy)-4-(difluoromethoxy)phenyl)-2-(3-(4-(N-(2-morpholinoethyl)methylsulfonamido)phenylsulfonyl)thiazolidine-2-carbonyloxy)ethyl)pyridine 1-oxide formate] | 9.00 to 10.00
O=C(CN1CCSC1C(=O)O[C@@H](Cc1c(Cl)c[n+]([O-])cc1Cl)c1ccc(OC(F)F)c(OCC2CC2)c1)c1cccs1 (stereo partly drawn) [Compound 144, 3,5-dichloro-4-((2S)-2-(3-(cyclopropylmethoxy)-4-(difluoromethoxy)phenyl)-2-(3-(2-oxo-2-(thiophen-2-yl)ethyl)thiazolidine-2-carbonyloxy)ethyl)pyridine 1-oxide] | 9.00 to 10.00
Nc1ccc(S(=O)(=O)N2CCS[C@H]2C(=O)O[C@@H](Cc2c(Cl)c[n+]([O-])cc2Cl)c2ccc(OC(F)F)c(OCC3CC3)c2)cc1 [Compound 150, 4-((S)-2-((S)-3-(4-aminophenylsulfonyl)thiazolidine-2-carbonyloxy)-2-(3-(cyclopropylmethoxy)-4-(difluoromethoxy)phenyl)ethyl)-3,5-dichloropyridine 1-oxide] | > 10.00
Cn1ccnc1S(=O)(=O)N1CCC[C@H]1C(=O)O[C@@H](Cc1c(Cl)c[n+]([O-])cc1Cl)c1ccc(OC(F)F)c(OCC2CC2)c1 [Compound 155, 3,5-dichloro-4-((S)-2-(3-(cyclopropylmethoxy)-4-(difluoromethoxy)phenyl)-2-((S)-1-(1-methyl-1H-imidazol-2-ylsulfonyl)pyrrolidine-2-carbonyloxy)ethyl)pyridine 1-oxide] | > 10.00
